Data from US20170240539A1, “Preparation and Use of Cyclic Sulfonamide Derivatives as PAR-1 Receptor Antagonists” (MERCK SHARP & DOHME CORP., priority 2014, published 2017).

Target: T1, PAR-1 receptor (Homo sapiens, UniProt P25116)
T1 construct: endogenous in cells; host or cells: HEK 293
T1 sequence (P25116 22-425): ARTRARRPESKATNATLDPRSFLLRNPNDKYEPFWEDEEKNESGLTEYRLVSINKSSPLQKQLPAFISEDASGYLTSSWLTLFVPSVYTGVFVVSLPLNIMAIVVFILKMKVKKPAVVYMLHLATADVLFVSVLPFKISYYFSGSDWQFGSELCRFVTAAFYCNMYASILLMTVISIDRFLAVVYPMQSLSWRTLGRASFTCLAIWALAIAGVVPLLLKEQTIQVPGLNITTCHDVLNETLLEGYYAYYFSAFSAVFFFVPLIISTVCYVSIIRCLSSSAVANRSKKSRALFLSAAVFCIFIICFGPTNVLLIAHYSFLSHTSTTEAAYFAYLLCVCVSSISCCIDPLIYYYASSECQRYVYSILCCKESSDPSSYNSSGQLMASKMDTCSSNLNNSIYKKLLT
Assay: PAR-1 FLIPR Assay
Type: cell-based
Details: HEK 293 cells, FLIPR calcium-5 dye; inhibition of signal from PAR1 selective receptor-activating peptide at 80% activation concentration (1.4-2.0 uM); compound incubated 30 minutes at 25 degrees
Description: The following assay was used to determine the ability of the inventive compounds to inhibit the PAR-1 receptor.
HEK 293 Cells are grown in media containing DMEM, 10% FBS pen/strep/L-Glutamine and non-essential amino acids. The cells are plated in 384-well PDL coated plates at 12000 cells/well and incubated overnight at 37° C./5% CO2. Media is then removed from the cells, which are then incubated with buffer (Hank's containing HEPES and Chaps) containing FLIPR calcium-5 dye, made with buffer containing probenecid, for 60 minutes at 37° C. Varying concentrations of compound in a final concentration of 5% DMSO are then added to the cells and incubated at 25 degrees for 30 minutes. The plates are then added to a FLIPR Tetra cellular screening system and the device adds a concentration of a PAR1 selective receptor-activating peptide with the sequence Ala-parafluoroPhe-Arg-Cha-Cit-Tyr-NH2 (SEQ ID NO: 3) (prepared in water) at a concentration equal to the effective concentration that achieves 80% activation of signaling on the day of the experiment. The range is from 1.4-2.0 uM peptide. The FLIPR reads at an excitation wavelength of 480 nm and an emission wavelength of 535 nm, and performs 60 scans over a 1-2 min reading time. The data are analyzed by taking the peak signal over a portion of the range of the 60 scans and dividing this signal by the minimum signal for that same range. The data are expressed as percent inhibition of the maximum divided by the minimum signal achieved at 80% activation produced by the PAR1 activating peptide on the test day.

| Structure (SMILES) | IC50 [nM] |
| --- | --- |
| C[C@H]1NS(=O)(=O)[C@@H]2CC(F)(F)[C@@H](C)[C@H](/C=C/c3ccc(-c4cccnc4C#N)cn3)[C@@H]21 [Example 2, (3R,3aR,4S,5S,7aR)-6,6-difluoro-4-((E)-2-(2′-cyano-[3,3′-bipyridin]-6-yl)vinyl)-3,5-dimethyloctahydrobenzo[d]isothiazole 1,1-dioxide] | 55.8 |
| CC(=O)N1[C@H](C)[C@H]2[C@@H](/C=C/c3ccc(-c4ccccc4C#N)cn3)[C@H](C)C(F)(F)C[C@H]2S1(=O)=O [Example 4, 1-((3R,3aR,4S,5S,7aR)-6,6-difluoro-4-((E)-2-(5-(2-cyanophenyl)pyridin-2-yl)vinyl)-3,5-dimethyl-1,1-dioxidohexahydrobenzo[d]isothiazol-2(3H)-yl)ethanone] | 483 |
| COc1ncccc1-c1ccc(/C=C/[C@@H]2[C@@H]3[C@@H](C)NS(=O)(=O)[C@]3(CC(N)=O)CC(F)(F)[C@H]2C)nc1 [Example 18, 2-((3R,3aR,4S,5S,7aR)-6,6-difluoro-4-((E)-2-(2′-methoxy-[3,3′-bipyridin]-6-yl)vinyl)-3,5-dimethyl-1,1-dioxidooctahydrobenzo[d]isothiazol-7a-yl)acetamide] | 36.8 |
| C[C@H]1NS(=O)(=O)[C@]2(CC(=O)O)CC(F)(F)[C@@H](C)[C@H](/C=C/c3ccc(-c4ccccc4C#N)cn3)[C@H]12 [Example 25, 2-((3R,3aR,4S,5S,7aR)-4-((E)-2-(5-(2-cyanophenyl)pyridin-2-yl)vinyl)-6,6-difluoro-3,5-dimethyl-1,1-dioxidooctahydrobenzo[d]isothiazol-7a-yl)acetic acid] | 12 |
| C[C@H]1NS(=O)(=O)[C@]2(CC(N)=O)CC(F)(F)[C@@H](C)[C@H](/C=C/c3ccc(-c4cccnc4C#N)cn3)[C@H]12 [Example 24, 2-((3R,3aR,4S,5S,7aR)-6,6-difluoro-4-((E)-2-(2′-cyano-[3,3′-bipyridin]-6-yl)vinyl)-3,5-dimethyl-1,1-dioxidooctahydrobenzo[d]isothiazol-7a-yl)acetamide] | 89 |
| COc1ncccc1-c1ccc(/C=C/[C@@H]2[C@@H]3[C@@H](C)N(C(=O)OC(C)(C)C)S(=O)(=O)[C@@]3(CC(N)=O)CC(F)(F)[C@H]2C)nc1 [Example 19, (3R,3aR,4S,5S,7aS)-tert-butyl 7a-(2-amino-2-oxoethyl)-6,6-difluoro-4-((E)-2-(2′-methoxy-[3,3′-bipyridin]-6-yl)vinyl)-3,5-dimethylhexahydrobenzo[d]isothiazole-2(3H)-carboxylate 1,1-dioxide] | 54 |
| C[C@H]1NS(=O)(=O)[C@@H]2CC(F)(F)[C@@H](C)[C@H](/C=C/c3ccc(-c4cccc(F)c4)cn3)[C@@H]21 [Example 5, (3R,3aR,4S,5S,7aR)-6,6-difluoro-4-((E)-2-(5-(3-fluorophenyl)pyridin-2-yl)vinyl)-3,5-dimethyloctahydrobenzo[d]isothiazole 1,1-dioxide] | 19 |
| COc1ncccc1-c1ccc(/C=C/[C@@H]2[C@H]3[C@@H](CC(F)(F)[C@H]2C)S(=O)(=O)N[C@@H]3C)nc1 [Example 1, (3R,3aR,4S,5S,7aR)-6,6-difluoro-4-((E)-2-(2′-methoxy-[3,3′-bipyridin]-6-yl)vinyl)-3,5-dimethyloctahydrobenzo[d]isothiazole 1,1-dioxide] | 5.1 |
| C[C@H]1NS(=O)(=O)[C@]2(CC(N)=O)CC(F)(F)[C@@H](C)[C@H](/C=C/c3ccc(-c4cccc(F)c4)cn3)[C@H]12 [Example 20, 2-((3R,3aR,4S,5S,7aR)-6,6-difluoro-4-((E)-2-(5-(3-fluorophenyl)pyridin-2-yl)vinyl)-3,5-dimethyl-1,1-dioxidooctahydrobenzo[d]isothiazol-7a-yl)acetamide] | 5 |
